Laboratory results published in patent US10717762B2, “Abiraterone derivative and formulations thereof” (Zhuhai Beihai Biotech Co., Ltd., priority 2016, dated 2020).
Like-named read-outs stand apart in the source and are kept apart here.

Key:
[1] = Solubility in water (description); type: physicochemical; conditions: ABOA, white to off-white solid
[2] = cited from earlier work
CYP3A4 liver enzyme = CYP3A4 liver enzyme (Homo sapiens, UniProt P08684); conditions: Zytiga Full Prescribing Information, Section 7.2; cited from earlier work
Sequence of CYP3A4 liver enzyme (P08684 whole entry): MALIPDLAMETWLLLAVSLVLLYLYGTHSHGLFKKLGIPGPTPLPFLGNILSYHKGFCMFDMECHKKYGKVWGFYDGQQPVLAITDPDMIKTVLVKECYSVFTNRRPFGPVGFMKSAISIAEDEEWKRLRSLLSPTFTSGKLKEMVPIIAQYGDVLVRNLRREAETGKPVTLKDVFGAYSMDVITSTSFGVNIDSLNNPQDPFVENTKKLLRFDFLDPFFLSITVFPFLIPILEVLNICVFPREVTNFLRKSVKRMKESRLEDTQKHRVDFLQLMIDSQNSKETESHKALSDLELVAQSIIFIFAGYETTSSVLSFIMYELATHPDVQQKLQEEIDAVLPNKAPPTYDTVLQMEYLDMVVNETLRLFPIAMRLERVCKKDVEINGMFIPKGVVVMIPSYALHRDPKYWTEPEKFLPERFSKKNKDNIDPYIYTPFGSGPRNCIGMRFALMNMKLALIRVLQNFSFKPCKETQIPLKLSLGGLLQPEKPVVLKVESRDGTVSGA

[3] = product insert (Zytiga Full Prescribing Information, Section 11); cited from earlier work

Compound | solubility in water [1] | food-effect ([2]; depending on fat content of the meal) | administered drug excreted ([2]; oral, low bioavailability from poor absorption) | CYP3A4 substrate (CYP3A4 liver enzyme) | solubility in water [3]
C[C@]12CC[C@H](OC(=O)C(=O)O)CC1=CC[C@@H]1[C@@H]2CC[C@]2(C)C(c3cccnc3)=CC[C@@H]12 [ABOA, 2-(((3S,8R,9S,10R,13S,14S)-10,13-dimethyl-17-(pyridin-3-yl)-2,3,4,7,8,9,10,11,12,13,14,15-dodecahydro-1H-cyclopenta[a]phenanthren-3-yl)oxy)-2-oxoacetic acid] | practically insoluble in water | – | – | – | –
CC(=O)O[C@H]1CC[C@@]2(C)C(=CC[C@@H]3[C@@H]2CC[C@]2(C)C(c4cccnc4)=CC[C@@H]32)C1 [abiraterone acetate] | – | five- to ten-fold | 77% | substrate of the CYP3A4 liver enzyme | practically insoluble in water
